The record followed here is patent publication US20240384268A1, “Oligonucleotides” (Hudson Institute of Medical Research, priority 2021, published 2024).

One series has as its target T1, TLR8 (Homo sapiens, UniProt Q9NR97).
T1 sequence (Q9NR97 27-1041): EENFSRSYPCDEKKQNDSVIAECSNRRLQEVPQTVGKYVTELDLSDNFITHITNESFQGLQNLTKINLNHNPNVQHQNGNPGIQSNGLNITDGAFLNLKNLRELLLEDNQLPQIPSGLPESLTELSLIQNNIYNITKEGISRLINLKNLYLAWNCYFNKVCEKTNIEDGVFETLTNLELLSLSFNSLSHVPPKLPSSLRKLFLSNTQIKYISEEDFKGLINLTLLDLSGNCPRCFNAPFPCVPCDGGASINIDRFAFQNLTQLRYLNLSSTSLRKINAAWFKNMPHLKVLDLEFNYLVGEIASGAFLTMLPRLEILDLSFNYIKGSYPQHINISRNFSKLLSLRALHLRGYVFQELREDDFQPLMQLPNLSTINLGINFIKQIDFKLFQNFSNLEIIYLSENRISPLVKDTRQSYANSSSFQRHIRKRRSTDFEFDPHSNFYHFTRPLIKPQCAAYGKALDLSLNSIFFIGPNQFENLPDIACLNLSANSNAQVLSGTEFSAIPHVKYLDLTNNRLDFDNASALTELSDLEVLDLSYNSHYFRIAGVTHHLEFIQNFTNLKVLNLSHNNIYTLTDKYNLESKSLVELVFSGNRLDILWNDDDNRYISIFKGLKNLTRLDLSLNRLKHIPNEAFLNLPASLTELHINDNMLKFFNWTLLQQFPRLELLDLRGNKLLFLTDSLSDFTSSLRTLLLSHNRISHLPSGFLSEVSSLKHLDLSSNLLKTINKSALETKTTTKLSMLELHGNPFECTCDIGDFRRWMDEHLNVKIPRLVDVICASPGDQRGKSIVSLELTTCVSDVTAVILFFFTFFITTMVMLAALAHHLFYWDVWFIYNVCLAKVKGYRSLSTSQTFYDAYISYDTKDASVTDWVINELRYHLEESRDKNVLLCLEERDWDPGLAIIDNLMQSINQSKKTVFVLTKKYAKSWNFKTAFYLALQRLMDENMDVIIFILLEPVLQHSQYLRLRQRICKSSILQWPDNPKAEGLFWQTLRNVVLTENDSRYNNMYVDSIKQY
As to the kind of experiment: HEK-TLR8 NF-κB-luciferase reporter, R848 or Motolimod stimulation (potentiation or inhibition). To be noted: MOE-modified ASO at 100 nM; averaged NF-κB-Luciferase relative to R848 condition (fold increase). Further details: expressed in transfected cells; host or cells: 293XLhTLR8 (HEK293). The series is classed as cell-based. On the technique in general: Reporter assays use an easily measured gene product as a stand-in for the process of interest.
Turning to “AACACTTCGTGGGGTCCTTT (antisense; 2'-MOE modified, pattern not given here) [HPRT-664 MOE]”, the “TLR8 100 nM” value is given as 2.725.
Turning to “AATCCGCCCAAAGGGAACTG (antisense; 2'-MOE modified, pattern not given here) [HPRT-1027 MOE]”, the “TLR8 100 nM” value was 2.685.
Regarding “ACAACCCCTTTCACCATCCC (antisense; 2'-MOE modified, pattern not given here) [MB21D1-689 MOE]”, the “TLR8 100 nM” value was 8.841.
Still for that read-out and setting: the result for “ACAGTGTTGAGATACTCGGG (antisense; 2'-MOE modified, pattern not given here) [EGFR-3652 MOE]” reads 5.681.
As for “ACCCACTTGGCAGACCATCA (antisense; 2'-MOE modified, pattern not given here) [CTNN2B-1575 MOE]”, the “TLR8 100 nM” value stood at 2.822.
Consider “ACTGACTGTCTTGAGGGTTC (antisense; 2'-MOE modified, pattern not given here) [MB21D1-1483 MOE]”, for which the “TLR8 100 nM” value turned out to be 2.454.
Consider “AGATCTGGCAGCCCATCAAC (antisense; 2'-MOE modified, pattern not given here) [CTNN2B-2516 MOE]”, for which the “TLR8 100 nM” value is 3.069.
For the sequence “AGGTCTTGGCTTCGTGGAGC (antisense; 2'-MOE modified, pattern not given here) [MB21D1-522 MOE]”, the “TLR8 100 nM” value amounted to 3.657.
“ATCCAACACTTCGTGGGGTC (antisense; 2'-MOE modified, pattern not given here) [HPRT-668 MOE]”: the “TLR8 100 nM” value came out at 1.437.
As to “ATGTCCCCTGTTGACTGGTC (antisense; 2'-MOE modified, pattern not given here) [HPRT-489 MOE]”, the “TLR8 100 nM” value worked out at 1.752.
As for “ATGTCCCGCCACTGGATGCT (antisense; 2'-MOE modified, pattern not given here) [EGFR-727 MOE]”, the “TLR8 100 nM” value is recorded as 2.029.
Still for that read-out and setting: in the case of “ATGTGATGGCCTCCCATCTC (antisense; 2'-MOE modified, pattern not given here) [HPRT-333 MOE]” it was 0.939; in that of “CAACACTTCGTGGGGTCCTT (antisense; 2'-MOE modified, pattern not given here) [HPRT-665 MOE]”, 1.320.
On to “CAAGGCCCTTCGCACTTCTT (antisense; 2'-MOE modified, pattern not given here) [EGFR-1225 MOE]”, for which the “TLR8 100 nM” value is recorded as 1.115.
Consider “CAATGTGATGGCCTCCCATC (antisense; 2'-MOE modified, pattern not given here) [HPRT-335 MOE]”, for which the “TLR8 100 nM” value was 1.518.
On to “CACCCACTTGGCAGACCATC (antisense; 2'-MOE modified, pattern not given here) [CTNN2B-1576 MOE]”, for which the “TLR8 100 nM” value is 1.440.
For the sequence “CAGATAGCACCTTCAGCACT (antisense; 2'-MOE modified, pattern not given here) [CTNN2B-1294 MOE]”, the “TLR8 100 nM” value came to 1.773.
“CCAACACTTCGTGGGGTCCT (antisense; 2'-MOE modified, pattern not given here) [HPRT-666 MOE]”: the “TLR8 100 nM” value worked out at 1.223.

The same series, now with this note: MOE-modified ASO at 500 nM; averaged NF-κB-Luciferase relative to R848 condition (fold increase).
Turning to “AACACTTCGTGGGGTCCTTT (antisense; 2'-MOE modified, pattern not given here) [HPRT-664 MOE]”, the “TLR8 500 nM” value is given as 3.167.
With “AATCCGCCCAAAGGGAACTG (antisense; 2'-MOE modified, pattern not given here) [HPRT-1027 MOE]”, the “TLR8 500 nM” value was found to be 4.659.
For the sequence “ACAACCCCTTTCACCATCCC (antisense; 2'-MOE modified, pattern not given here) [MB21D1-689 MOE]”, the “TLR8 500 nM” value was found to be 14.808.
“ACAGTGTTGAGATACTCGGG (antisense; 2'-MOE modified, pattern not given here) [EGFR-3652 MOE]”: the “TLR8 500 nM” value came to 8.261.
In the case of “ACCCACTTGGCAGACCATCA (antisense; 2'-MOE modified, pattern not given here) [CTNN2B-1575 MOE]”, the “TLR8 500 nM” value turned out to be 3.985.
Turning to “ACTGACTGTCTTGAGGGTTC (antisense; 2'-MOE modified, pattern not given here) [MB21D1-1483 MOE]”, the “TLR8 500 nM” value is 3.185.
As for “AGATCTGGCAGCCCATCAAC (antisense; 2'-MOE modified, pattern not given here) [CTNN2B-2516 MOE]”, the “TLR8 500 nM” value is given as 4.465.
The same measure, in the same setting: the result for “AGGTCTTGGCTTCGTGGAGC (antisense; 2'-MOE modified, pattern not given here) [MB21D1-522 MOE]” reads 5.064; that for “ATCCAACACTTCGTGGGGTC (antisense; 2'-MOE modified, pattern not given here) [HPRT-668 MOE]”, 1.519; that for “ATGTCCCCTGTTGACTGGTC (antisense; 2'-MOE modified, pattern not given here) [HPRT-489 MOE]”, 2.118.
Regarding “ATGTCCCGCCACTGGATGCT (antisense; 2'-MOE modified, pattern not given here) [EGFR-727 MOE]”, the “TLR8 500 nM” value turned out to be 1.708.
As for “ATGTGATGGCCTCCCATCTC (antisense; 2'-MOE modified, pattern not given here) [HPRT-333 MOE]”, the “TLR8 500 nM” value is listed as 1.429.
Regarding “CAACACTTCGTGGGGTCCTT (antisense; 2'-MOE modified, pattern not given here) [HPRT-665 MOE]”, the “TLR8 500 nM” value is listed as 1.639.
Turning to “CAAGGCCCTTCGCACTTCTT (antisense; 2'-MOE modified, pattern not given here) [EGFR-1225 MOE]”, the “TLR8 500 nM” value is listed as 1.236.
As for “CAATGTGATGGCCTCCCATC (antisense; 2'-MOE modified, pattern not given here) [HPRT-335 MOE]”, the “TLR8 500 nM” value amounted to 1.677.
On to “CACCCACTTGGCAGACCATC (antisense; 2'-MOE modified, pattern not given here) [CTNN2B-1576 MOE]”, for which the “TLR8 500 nM” value amounted to 1.502.
For the sequence “CAGATAGCACCTTCAGCACT (antisense; 2'-MOE modified, pattern not given here) [CTNN2B-1294 MOE]”, the “TLR8 500 nM” value worked out at 2.356.
For the sequence “CCAACACTTCGTGGGGTCCT (antisense; 2'-MOE modified, pattern not given here) [HPRT-666 MOE]”, the “TLR8 500 nM” value is 1.185.
